Experimental data taken from ChEMBL document CHEMBL1138368, “Synthesis of thiazolone-based sulfonamides as inhibitors of HCV NS5B polymerase” (Bioorg Med Chem Lett, 2007).

Tests used:
[1] = Inhibition of HCV NS5B polymerase […]; design: species or system Hepacivirus hominis
[2] = system: Hepatitis C virus; assay: Antiviral activity against HCV replicon assay; type: functional, organism-based, Hepacivirus hominis

Row | IC50 [1] [µM] | EC50 [2] [µM] | SMILES
1 | 40 | 64 | Cc1ccc(S(=O)(=O)NC2=NC(=O)C(Cc3ccc(Br)o3)S2)cc1 (stereo not drawn)
2 | 3.2 | 200 | Cc1ccc(S(=O)(=O)NC2=NC(=O)/C(=C/c3cc(C)c(C)o3)S2)cc1
3 | 11 | 60 | Cc1ccc(S(=O)(=O)NC2=NC(=O)/C(=C/c3ccco3)S2)cc1
4 | 13 | 200 | CCc1ccc(/C=C2\SC(NC(=O)c3ccc(C)cc3)=NC2=O)o1
5 | > 100 | 70 | CCCCCCN(C1=NC(=O)/C(=C/c2ccc(CC)o2)S1)S(=O)(=O)c1ccc(C)cc1
6 | > 100 | 60 | Cc1ccc(S(=O)(=O)NC2=NC(=O)/C(=C/c3ccc(-n4ccnc4)cc3)S2)cc1
7 | 16 | 60 | Cc1ccc(C(=O)NC2=NC(=O)/C(=C/c3ccc(C)o3)S2)cc1
8 | 14 | 70 | Cc1ccc(S(=O)(=O)NC2=NC(=O)/C(=C/c3ccc(C)s3)S2)cc1
9 | 33 | 100 | Cc1ccc(C(=O)NC2=NC(=O)/C(=C/c3cccs3)S2)cc1
10 | 32 | 100 | Cc1ccc(S(=O)(=O)NC2=NC(=O)/C(=C/c3ccc(-n4cncn4)cc3)S2)cc1
11 | 4.9 | 9 | Cc1ccc(S(=O)(=O)NC2=NC(=O)/C(=C/c3ccc(-c4nc(C(C)(C)C)cs4)cc3)S2)cc1
12 | 4.2 | 7 | Cc1ccc(S(=O)(=O)NC2=NC(=O)/C(=C/c3ccc([N+](=O)[O-])s3)S2)cc1
13 | 3.2 | 200 | CCc1ccc(/C=C2\SC(NS(=O)(=O)c3ccc([N+](=O)[O-])cc3)=NC2=O)o1
14 | > 100 | 55 | CCCCCN(C1=NC(=O)/C(=C/c2ccc(CC)o2)S1)S(=O)(=O)c1ccc(C)cc1
15 | > 100 | 33 | CCCCN(C1=NC(=O)/C(=C/c2ccc(CC)o2)S1)S(=O)(=O)c1ccc(C)cc1
16 | 74 | 200 | Cc1ccc(S(=O)(=O)NC2=NC(=O)C(Cc3ccco3)S2)cc1 (stereo not drawn)
17 | 5 | 55 | Cc1ccc(S(=O)(=O)NC2=NC(=O)/C(=C/C=C/c3ccco3)S2)cc1
18 | 18 | 90 | CCc1ccc(/C=C2\SC(NS(=O)(=O)c3ccccc3[N+](=O)[O-])=NC2=O)o1
19 | 44 | 120 | Cc1ccc(C(=O)NC2=NC(=O)/C(=C/c3ccc(-c4nccs4)o3)S2)cc1
20 | 7.3 | 33 | CCc1ccc(CC2SC(NS(=O)(=O)c3ccc(C)cc3)=NC2=O)o1 (stereo not drawn)
21 | 12 | 180 | Cc1ccc(S(=O)(=O)NC2=NC(=O)/C(=C/c3ccc(N4CCOCC4)cc3)S2)cc1

Row | IC50 [1] [µM] | EC50 [2] [µM] | SMILES
22 | 1.4 | 25 | CCc1ccc(/C=C2\SC(NS(=O)(=O)c3ccc(C)cc3)=NC2=O)o1
23 | 10 | 200 | Cc1ccc(S(=O)(=O)NC2=NC(=O)/C(=C/c3cc(C)c(Cl)s3)S2)cc1
24 | 10 | 70 | Cc1ccc(S(=O)(=O)NC2=NC(=O)/C(=C/c3ccc(-n4cccn4)cc3)S2)cc1
25 | 34 | 200 | CCc1ccc(/C=C2\SC(NS(=O)(=O)c3ccccc3NC(C)=O)=NC2=O)o1
26 | 1.4 | 20 | Cc1ccc(S(=O)(=O)NC2=NC(=O)/C(=C/c3ccc(-c4csnn4)cc3)S2)cc1
27 | > 100 | 180 | Cc1ccc(S(=O)(=O)NC2=NC(=O)C(CCCc3ccccn3)S2)cc1 (stereo not drawn)
28 | 2.7 | 50 | Cc1ccc(S(=O)(=O)NC2=NC(=O)/C(=C/c3ccc(Br)o3)S2)cc1
29 | > 100 | 90 | CCN(CC)c1ccc(/C=C2\SC(NS(=O)(=O)c3ccc(C)cc3)=NC2=O)cc1
30 | 15 | 40 | Cc1ccc(S(=O)(=O)NC2=NC(=O)C(Cc3ccc(I)o3)S2)cc1 (stereo not drawn)
31 | 8 | 40 | CCc1ccc(/C=C2\SC(NS(=O)(=O)c3cccs3)=NC2=O)o1
32 | 5.5 | 55 | Cc1ccc(S(=O)(=O)NC2=NC(=O)/C(=C/c3ccc(-c4ccccc4)o3)S2)cc1
33 | 0.6 | 35 | Cc1ccc(S(=O)(=O)NC2=NC(=O)/C(=C/C=C/c3ccccn3)S2)cc1
34 | 1.4 | 25 | Cc1ccc(S(=O)(=O)NC2=NC(=O)/C(=C/c3ccc(N4CCCC4)cc3)S2)cc1
35 | 11 | – | Cc1ccc(S(=O)(=O)NC2=NC(=O)/C(=C/c3ccc(C)o3)S2)cc1
36 | > 100 | 90 | CCCCCCCN(C1=NC(=O)/C(=C/c2ccc(CC)o2)S1)S(=O)(=O)c1ccc(C)cc1
37 | 11 | 70 | Cc1ccc(C(=O)NC2=NC(=O)/C(=C/c3ccc(-c4ccc(-c5csnn5)cc4)o3)S2)cc1
38 | 12 | 80 | Cc1ccc(S(=O)(=O)NC2=NC(=O)/C(=C/c3cccs3)S2)cc1
39 | 3.2 | 30 | CCc1ccc(/C=C2\SC(NS(=O)(=O)c3ccc(C(F)(F)F)cc3)=NC2=O)o1
40 | 2.8 | 38 | Cc1ccc(S(=O)(=O)NC2=NC(=O)/C(=C/c3ccc(I)o3)S2)cc1
41 | 11 | 27 | CCc1ccc(/C=C2\SC(NS(=O)(=O)c3ccccc3N)=NC2=O)o1
42 | > 100 | 220 | Cc1ccc(C(=O)NC2=NC(=O)/C(=C/c3ccc(-c4[nH]cnc4C)o3)S2)cc1
